One block for each compound: values may come before it.
Legend:
CLPP = CLPP (Mus musculus, UniProt O88696); assay: LiPIP in Neuro2a cells, CLPP; format: binding; details: drug 30 μM, lipid probe 10 μM
SGPL1 = target: T1, SGPL1 (Mus musculus, UniProt Q8R0X7); assay: LiPIP in Neuro2a cells, SGPL1; format: binding; details: drug 30 μM, lipid probe 10 μM
T1 sequence (Q8R0X7 1-568): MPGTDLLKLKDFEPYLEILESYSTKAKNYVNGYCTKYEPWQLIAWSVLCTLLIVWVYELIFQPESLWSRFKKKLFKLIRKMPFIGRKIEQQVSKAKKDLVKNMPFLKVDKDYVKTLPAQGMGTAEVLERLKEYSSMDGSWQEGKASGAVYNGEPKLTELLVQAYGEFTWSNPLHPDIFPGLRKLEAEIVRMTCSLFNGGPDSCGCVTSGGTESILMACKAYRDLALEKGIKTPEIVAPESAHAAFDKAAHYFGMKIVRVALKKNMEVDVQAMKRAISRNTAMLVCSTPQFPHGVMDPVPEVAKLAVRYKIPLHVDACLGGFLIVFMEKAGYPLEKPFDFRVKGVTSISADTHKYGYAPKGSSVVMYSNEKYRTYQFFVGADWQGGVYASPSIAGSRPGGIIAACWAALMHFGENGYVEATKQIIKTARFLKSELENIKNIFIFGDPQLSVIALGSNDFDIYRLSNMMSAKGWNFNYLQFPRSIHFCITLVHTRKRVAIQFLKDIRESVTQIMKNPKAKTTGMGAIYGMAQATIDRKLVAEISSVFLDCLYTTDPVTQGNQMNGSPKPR

EPHX1 = target: T2, EPHX1 (Mus musculus, UniProt Q9D379); assay: LiPIP in Neuro2a cells, EPHX1; format: binding; details: drug 30 μM, lipid probe 10 μM
T2 sequence (Q9D379 1-455): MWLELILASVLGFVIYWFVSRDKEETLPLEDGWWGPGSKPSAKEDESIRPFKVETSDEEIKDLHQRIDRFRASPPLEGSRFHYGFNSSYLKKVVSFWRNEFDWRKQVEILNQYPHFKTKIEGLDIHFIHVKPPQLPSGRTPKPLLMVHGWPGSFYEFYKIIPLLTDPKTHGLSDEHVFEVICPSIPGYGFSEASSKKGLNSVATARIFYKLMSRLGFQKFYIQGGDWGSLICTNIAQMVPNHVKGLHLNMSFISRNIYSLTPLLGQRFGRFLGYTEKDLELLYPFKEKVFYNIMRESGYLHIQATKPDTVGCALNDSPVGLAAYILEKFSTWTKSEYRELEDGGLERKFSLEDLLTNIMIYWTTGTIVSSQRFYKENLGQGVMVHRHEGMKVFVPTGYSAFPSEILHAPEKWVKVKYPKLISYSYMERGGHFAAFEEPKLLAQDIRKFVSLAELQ

TMEM97 = target: T3, TMEM97 (Mus musculus, UniProt Q8VD00); assay: LiPIP in Neuro2a cells, TMEM97; format: binding; details: drug 30 μM, lipid probe 10 μM
T3 sequence (Q8VD00 1-176): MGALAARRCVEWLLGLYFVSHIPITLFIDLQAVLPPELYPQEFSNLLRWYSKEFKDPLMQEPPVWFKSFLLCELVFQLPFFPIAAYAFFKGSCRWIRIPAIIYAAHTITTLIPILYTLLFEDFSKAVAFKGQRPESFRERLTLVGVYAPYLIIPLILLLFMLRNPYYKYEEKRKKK

mSGPL1 [1] = target: T4, mSGPL1 (Mus musculus, UniProt Q8R0X7); assay: Gel-based blockade of AEA-DA labeling of recombinant mSGPL1 in HEK293T cells; format: binding; details: recombinant mSGPL1 expressed in HEK293T cells; AEA-DA 2 μM
T4 sequence (Q8R0X7 1-568): T1 sequence (Q8R0X7 1-568)

mSGPL1 [2] = target: T4, mSGPL1; assay: AEA-DA probe interactions with mSGPL1 in vitro; format: binding; details: Fig. S3c
mSGPL1 [3] = target: T4, mSGPL1; format: biochemical; details: tested at concentrations up to 200 μM
rSGPL1 = target: T5, rSGPL1 (Rattus norvegicus, UniProt Q8CHN6); format: biochemical; details: tested at concentrations up to 200 μM
T5 sequence (Q8CHN6 1-568): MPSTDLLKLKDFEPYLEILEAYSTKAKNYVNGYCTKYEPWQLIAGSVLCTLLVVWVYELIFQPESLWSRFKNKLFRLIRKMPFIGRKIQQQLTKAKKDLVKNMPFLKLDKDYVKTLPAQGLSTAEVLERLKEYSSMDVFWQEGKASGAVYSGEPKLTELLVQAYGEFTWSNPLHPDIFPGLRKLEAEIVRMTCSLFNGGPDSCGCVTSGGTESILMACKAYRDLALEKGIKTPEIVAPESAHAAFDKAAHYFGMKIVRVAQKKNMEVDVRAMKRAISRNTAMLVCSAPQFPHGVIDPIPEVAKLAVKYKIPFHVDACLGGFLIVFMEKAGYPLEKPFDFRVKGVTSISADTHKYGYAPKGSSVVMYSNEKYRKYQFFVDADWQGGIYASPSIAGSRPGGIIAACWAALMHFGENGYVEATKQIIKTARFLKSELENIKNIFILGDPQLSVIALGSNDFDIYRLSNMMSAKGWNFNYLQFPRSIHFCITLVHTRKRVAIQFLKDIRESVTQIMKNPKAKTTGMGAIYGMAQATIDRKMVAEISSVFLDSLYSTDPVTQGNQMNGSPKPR

hSGPL1 = target: T6, hSGPL1 (Homo sapiens, UniProt O95470); format: biochemical
T6 sequence (O95470 1-568): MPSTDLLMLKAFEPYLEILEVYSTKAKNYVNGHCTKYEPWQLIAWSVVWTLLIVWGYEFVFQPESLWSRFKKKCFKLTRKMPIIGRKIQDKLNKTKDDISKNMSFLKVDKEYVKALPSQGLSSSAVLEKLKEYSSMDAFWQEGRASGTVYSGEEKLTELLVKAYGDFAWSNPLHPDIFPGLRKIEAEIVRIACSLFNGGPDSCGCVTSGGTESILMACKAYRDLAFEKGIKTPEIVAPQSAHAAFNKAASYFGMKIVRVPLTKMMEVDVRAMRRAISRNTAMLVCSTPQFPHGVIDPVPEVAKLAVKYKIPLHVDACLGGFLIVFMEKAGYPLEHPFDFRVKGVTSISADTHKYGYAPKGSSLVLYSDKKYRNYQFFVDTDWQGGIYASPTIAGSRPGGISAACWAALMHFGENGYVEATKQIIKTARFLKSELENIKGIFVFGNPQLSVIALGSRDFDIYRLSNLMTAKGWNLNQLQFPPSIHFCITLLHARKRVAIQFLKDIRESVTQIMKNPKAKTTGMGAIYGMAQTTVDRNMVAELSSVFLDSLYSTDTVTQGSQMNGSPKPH

[4] = system: oligodendrocyte precursor cell (OPC); details: cited from earlier work
ABHD5 = target: T7, ABHD5 (Homo sapiens, UniProt Q8WTS1); assay: LiPIP; format: binding; details: ligand at both 5 and 25 μM; probe 10 μM; HEK293T cells
T7 sequence (Q8WTS1 1-349): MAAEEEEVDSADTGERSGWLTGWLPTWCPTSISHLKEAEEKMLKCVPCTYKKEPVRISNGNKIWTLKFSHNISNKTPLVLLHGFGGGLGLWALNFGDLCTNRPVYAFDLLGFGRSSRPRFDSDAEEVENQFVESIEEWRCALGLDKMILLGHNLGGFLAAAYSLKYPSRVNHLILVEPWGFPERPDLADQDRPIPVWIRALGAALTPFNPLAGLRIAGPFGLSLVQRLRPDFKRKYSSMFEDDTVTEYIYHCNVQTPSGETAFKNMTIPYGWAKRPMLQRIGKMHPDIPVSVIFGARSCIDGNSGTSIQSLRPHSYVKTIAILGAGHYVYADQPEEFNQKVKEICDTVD

EPHX2 = target: T8, EPHX2 (Homo sapiens, UniProt P34913); assay: LiPIP probe competition in HEK293T cells, off-target EPHX2; format: binding; details: ligand 25 μM
T8 sequence (P34913 1-555): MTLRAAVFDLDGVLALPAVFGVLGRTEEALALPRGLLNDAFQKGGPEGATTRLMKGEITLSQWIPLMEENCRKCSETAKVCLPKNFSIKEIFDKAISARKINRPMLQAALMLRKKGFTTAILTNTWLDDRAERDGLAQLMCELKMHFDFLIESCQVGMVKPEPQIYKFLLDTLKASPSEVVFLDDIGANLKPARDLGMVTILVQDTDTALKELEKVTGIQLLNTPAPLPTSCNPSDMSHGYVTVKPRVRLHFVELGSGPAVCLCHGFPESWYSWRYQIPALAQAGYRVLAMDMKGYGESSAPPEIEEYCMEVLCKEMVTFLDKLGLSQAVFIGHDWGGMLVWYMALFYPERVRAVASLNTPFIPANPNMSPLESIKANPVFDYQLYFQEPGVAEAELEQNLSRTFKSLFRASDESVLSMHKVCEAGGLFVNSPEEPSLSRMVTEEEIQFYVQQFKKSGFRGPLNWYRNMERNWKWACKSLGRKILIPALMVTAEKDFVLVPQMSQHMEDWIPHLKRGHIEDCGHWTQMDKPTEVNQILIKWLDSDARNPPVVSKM

PNPLA2 = target: T9, PNPLA2 (Homo sapiens, UniProt Q96AD5); assay: LiPIP probe competition in HEK293T cells, PNPLA2; format: binding; details: unaltered lipid probe enrichment ratio
T9 sequence (Q96AD5 1-504): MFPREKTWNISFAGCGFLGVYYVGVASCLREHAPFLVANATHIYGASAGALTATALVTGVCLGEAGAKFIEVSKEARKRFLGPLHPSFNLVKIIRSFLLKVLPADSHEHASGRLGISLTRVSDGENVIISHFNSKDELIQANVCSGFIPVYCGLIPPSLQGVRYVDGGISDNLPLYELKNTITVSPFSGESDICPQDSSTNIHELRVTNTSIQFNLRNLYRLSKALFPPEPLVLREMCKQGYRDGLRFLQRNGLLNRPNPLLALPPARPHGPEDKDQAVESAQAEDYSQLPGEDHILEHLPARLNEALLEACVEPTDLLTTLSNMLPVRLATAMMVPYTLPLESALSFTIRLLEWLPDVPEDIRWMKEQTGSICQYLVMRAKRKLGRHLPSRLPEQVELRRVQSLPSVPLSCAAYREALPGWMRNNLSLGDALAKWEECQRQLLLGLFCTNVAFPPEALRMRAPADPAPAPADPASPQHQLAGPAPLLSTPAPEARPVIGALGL

Neuro2a cells = assay: Endogenous S1P content of Neuro2a cells by targeted LC-MS/MS; format: cell-based, mouse; details: 6 h treatment
rat OPC = assay: Monoculture rat OPC differentiation assay; details: alone or in combination with miconazole
ABHD10 = target: T10, ABHD10 (Homo sapiens, UniProt Q9NUJ1); assay: LiPIP probe competition in HEK293T cells, off-target ABHD10; format: binding; details: ligand 25 μM
T10 sequence (Q9NUJ1 53-306): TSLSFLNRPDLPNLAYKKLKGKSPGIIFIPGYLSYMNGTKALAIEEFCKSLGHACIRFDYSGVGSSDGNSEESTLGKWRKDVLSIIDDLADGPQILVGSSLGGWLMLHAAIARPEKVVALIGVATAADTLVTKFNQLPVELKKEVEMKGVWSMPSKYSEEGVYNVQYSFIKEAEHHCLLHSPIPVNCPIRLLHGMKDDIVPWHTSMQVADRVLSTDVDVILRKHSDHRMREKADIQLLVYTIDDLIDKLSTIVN

Chain of CLPP (O88696 53-272): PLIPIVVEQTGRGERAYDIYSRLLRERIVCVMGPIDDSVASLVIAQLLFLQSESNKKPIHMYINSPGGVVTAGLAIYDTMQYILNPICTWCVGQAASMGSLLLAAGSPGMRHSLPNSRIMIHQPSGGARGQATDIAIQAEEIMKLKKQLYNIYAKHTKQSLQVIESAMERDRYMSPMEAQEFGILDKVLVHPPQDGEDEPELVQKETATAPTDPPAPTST

Compound: C[C@@H](c1ncncc1F)[C@](O)(Cn1cncn1)c1ccc(F)cc1F [voriconazole]
SILAC ratio (light/heavy), CLPP (CLPP): ~ 1.0
SILAC ratio (light/heavy), SGPL1 (SGPL1): ~ 1.0
SILAC ratio (light/heavy), EPHX1 (EPHX1): ~ 1.0
SILAC ratio (light/heavy), TMEM97 (TMEM97): ~ 1.0
blockade of AEA-DA probe binding to mSGPL1 (mSGPL1 [1]): but not voriconazole
blockade of AEA-DA probe interactions with mSGPL1 in vitro (mSGPL1 [2]): but not voriconazole
inhibition of mSGPL1 activity (mSGPL1 [3]): did not inhibit
inhibition of rSGPL1 activity (rSGPL1): did not inhibit
inhibition of hSGPL1 activity (hSGPL1; tested at concentrations up to 200 μM): did not inhibit
OPC differentiation by phenotypic screening [4]: inactive

Compound: CCCCCCCCCCCCC/C=C/[C@@H](O)[C@@H](N)COP(=O)(O)O [S1P, sphingosine 1-phosphate]
blockade of AEA-DA probe interactions with mSGPL1 in vitro (mSGPL1 [2]): inhibited AEA-DA binding to SGPL1

Compound: Clc1ccc(COC(Cn2ccnc2)c2ccc(Cl)cc2Cl)c(Cl)c1 (stereo not drawn) [miconazole]
IC50 (hSGPL1): 6.5 µM
maximal inhibition of hSGPL1 (plateau) (hSGPL1; fluorogenic S1P substrate analog): 40%
effect on endogenous S1P content (Neuro2a cells): increased the endogenous S1P content
OPC differentiation by phenotypic screening [4]: promote oligodendrocyte precursor cell (OPC) differentiation
effect on OPC differentiation (MBP+ cells) (rat OPC): promotion of rat OPC differentiation

Compound: C[C@@H]1CN(c2nnc(Cc3ccccc3)c3ccc(C#N)cc23)CCN1c1ccc(C#N)cn1 [compound 11, (R)-1-benzyl-4-(4-(5-cyanopyridin-2-yl)-3-methylpiperazin-1-yl)phthalazine-6-carbonitrile]
effect on OPC differentiation (MBP+ cells) (rat OPC): did not promote OPC differentiation

Compound: CCCCCCCCc1ccc(CC[C@](N)(CO)COP(=O)(O)O)cc1 [(S)-pFTY720]
effect on OPC differentiation (MBP+ cells) (rat OPC): no impact on OPC differentiation

Second part, the compound after the results:

blocking the A-DA or AEA-DA probe interaction with ABHD5 (ABHD5): > 80%
SILAC ratio (LiPIP probe displacement), EPHX2 (EPHX2): ≥ 3.0
engagement of PNPLA2 (lipid probe enrichment ratio) (PNPLA2): not directly engaged
Compound: CCCCNC(=O)Nc1ccc2c(c1)N(C)C(=O)c1ccccc1S2 [SR-4995]

blocking the A-DA or AEA-DA probe interaction with ABHD5 (ABHD5): > 80%
SILAC ratio (LiPIP probe displacement), ABHD10 (ABHD10): ≥ 3.0
engagement of PNPLA2 (lipid probe enrichment ratio) (PNPLA2): not directly engaged
Compound: Cc1ccc2c(CC(=O)N3CCN(S(=O)(=O)c4ccc5c(c4)OCCO5)CC3)coc2c1 [SR-4559]

From publication PMC5650530 (ACS chemical biology, 2017)
